Earlier results, collected in US20210322306A1, “ORAL DISSOLVABLE FILM WITH HIGH LOAD OF POLYMERIC BINDER” (CURE Pharmaceutical Holding Corp., priority 2020, published 2021).

How the values were obtained:
[1] = neat binder
[2] = neat binder; remark: listed apart in the source

Polymeric Binder: Glass Transition Temperature (Tg) (determined by differential scanning calorimetry (DSC)) [1]: 102 °C
Polymeric Binder: Glass Transition Temperature (Tg) (determined by thermomechanical analysis (TMA)) [2]: 95 °C
SMILES: OC[C@H]1O[C@@H](O[C@H]2[C@H](O)[C@@H](O)C(O)O[C@@H]2CO)[C@H](O)[C@@H](O)[C@H]1O (some centres unmarked) [Lactose]
